Source: the supplement of paper PMC10307832

Legend:
Assay in all cases: relative viability (nuclei count vs DMSO), 5 days (fraction); higher = more cells survive
A-427 = system: A-427
How it was run: (§1)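 Lung cancer cell lines in 1536-well plates got either a single drug or a fixed anchor-drug dose together with five library-drug doses (not always all listed) in √10 steps, by pin tool, on the day after seeding. Nuclei were counted after 5 days, and relative viability is the treated-to-vehicle ratio of nuclei counts. Values are medians of duplicate plates.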

H3255 = system: H3255
How it was run: as §1

HARA = system: HARA
How it was run: as §1

HCC-15 = system: HCC-15
How it was run: as §1

HCC-366 = system: HCC-366
How it was run: as §1

LXF-289 = system: LXF-289
How it was run: as §1

NCI-H1437 = system: NCI-H1437
How it was run: as §1

NCI-H1755 = system: NCI-H1755
How it was run: as §1

NCI-H1793 = system: NCI-H1793
How it was run: as §1

NCI-H1915 = system: NCI-H1915
How it was run: as §1

NCI-H1975 = system: NCI-H1975
How it was run: as §1

NCI-H2009 = system: NCI-H2009
How it was run: as §1

NCI-H2023 = system: NCI-H2023
How it was run: as §1

NCI-H2405 = system: NCI-H2405
How it was run: as §1

NCI-H3122 = system: NCI-H3122
How it was run: as §1

NCI-H441 = system: NCI-H441
How it was run: as §1

NCI-H460 = system: NCI-H460
How it was run: as §1

NCI-H596 = system: NCI-H596
How it was run: as §1

NCI-H650 = system: NCI-H650
How it was run: as §1

PC-14 = system: PC-14
How it was run: as §1

PC-3 [JPC-3] = system: PC-3 [JPC-3]
How it was run: as §1

SK-LU-1 = system: SK-LU-1
How it was run: as §1

UMC-11 = system: UMC-11
How it was run: as §1

## Cc1cnc(-c2cnc(NCCNc3ccc(C#N)cn3)nc2-c2ccc(Cl)cc2Cl)[nH]1 + N=C(N)NC(=N)NCCc1ccccc1 [Phenformin] (partner 250 µM)
A-427; first compound 0.08 µM
  relative viability: 0.307
A-427; first compound 0.253 µM
  relative viability: 0.327
A-427; first compound 0.8 µM
  relative viability: 0.378
A-427; first compound 2.53 µM
  relative viability: 0.342
H3255; first compound 0.08 µM
  relative viability: 0.409
H3255; first compound 0.253 µM
  relative viability: 0.342
H3255; first compound 0.8 µM
  relative viability: 0.317
H3255; first compound 2.53 µM
  relative viability: 0.349
HARA; first compound 0.08 µM
  relative viability: 0.451
HARA; first compound 0.253 µM
  relative viability: 0.413
HARA; first compound 0.8 µM
  relative viability: 0.477
HARA; first compound 2.53 µM
  relative viability: 0.412
HCC-15; first compound 0.08 µM
  relative viability: 0.462
HCC-15; first compound 0.253 µM
  relative viability: 0.415
HCC-15; first compound 0.8 µM
  relative viability: 0.471
HCC-15; first compound 2.53 µM
  relative viability: 0.412
HCC-366; first compound 0.08 µM
  relative viability: 0.606
HCC-366; first compound 0.253 µM
  relative viability: 0.455
HCC-366; first compound 0.8 µM
  relative viability: 0.557
HCC-366; first compound 2.53 µM
  relative viability: 0.507
LXF-289; first compound 0.08 µM
  relative viability: 0.508
LXF-289; first compound 0.253 µM
  relative viability: 0.482
LXF-289; first compound 0.8 µM
  relative viability: 0.536
LXF-289; first compound 2.53 µM
  relative viability: 0.503
NCI-H1437; first compound 0.08 µM
  relative viability: 0.304
NCI-H1437; first compound 0.253 µM
  relative viability: 0.357
NCI-H1437; first compound 0.8 µM
  relative viability: 0.297
NCI-H1437; first compound 2.53 µM
  relative viability: 0.295
NCI-H1755; first compound 0.08 µM
  relative viability: 0.633
NCI-H1755; first compound 0.253 µM
  relative viability: 0.604
NCI-H1755; first compound 0.8 µM
  relative viability: 0.634
NCI-H1755; first compound 2.53 µM
  relative viability: 0.572
NCI-H1793; first compound 0.08 µM
  relative viability: 0.397
NCI-H1793; first compound 0.253 µM
  relative viability: 0.333
NCI-H1793; first compound 0.8 µM
  relative viability: 0.355
NCI-H1793; first compound 2.53 µM
  relative viability: 0.375
NCI-H1915; first compound 0.08 µM
  relative viability: 0.378
NCI-H1915; first compound 0.253 µM
  relative viability: 0.346
NCI-H1915; first compound 0.8 µM
  relative viability: 0.356
NCI-H1915; first compound 2.53 µM
  relative viability: 0.389
NCI-H1975; first compound 0.08 µM
  relative viability: 0.418
NCI-H1975; first compound 0.253 µM
  relative viability: 0.405
NCI-H1975; first compound 0.8 µM
  relative viability: 0.384
NCI-H1975; first compound 2.53 µM
  relative viability: 0.286
NCI-H2009; first compound 0.08 µM
  relative viability: 0.499
NCI-H2009; first compound 0.253 µM
  relative viability: 0.442
NCI-H2009; first compound 0.8 µM
  relative viability: 0.489
NCI-H2009; first compound 2.53 µM
  relative viability: 0.271
NCI-H2023; first compound 0.08 µM
  relative viability: 0.436
NCI-H2023; first compound 0.253 µM
  relative viability: 0.413
NCI-H2023; first compound 0.8 µM
  relative viability: 0.422
NCI-H2023; first compound 2.53 µM
  relative viability: 0.33
NCI-H2405; first compound 0.08 µM
  relative viability: 0.385
NCI-H2405; first compound 0.253 µM
  relative viability: 0.418
NCI-H2405; first compound 0.8 µM
  relative viability: 0.398
NCI-H2405; first compound 2.53 µM
  relative viability: 0.358
NCI-H3122; first compound 0.08 µM
  relative viability: 0.367
NCI-H3122; first compound 0.8 µM
  relative viability: 0.383
NCI-H3122; first compound 2.53 µM
  relative viability: 0.327
NCI-H441; first compound 0.08 µM
  relative viability: 0.841
NCI-H441; first compound 0.253 µM
  relative viability: 0.756
NCI-H441; first compound 0.8 µM
  relative viability: 0.714
NCI-H441; first compound 2.53 µM
  relative viability: 0.864
NCI-H460; first compound 0.08 µM
  relative viability: 0.551
NCI-H460; first compound 0.253 µM
  relative viability: 0.452
NCI-H460; first compound 0.8 µM
  relative viability: 0.513
NCI-H460; first compound 2.53 µM
  relative viability: 0.41
NCI-H596; first compound 0.08 µM
  relative viability: 0.834
NCI-H596; first compound 0.253 µM
  relative viability: 0.763
NCI-H596; first compound 0.8 µM
  relative viability: 0.595
NCI-H596; first compound 2.53 µM
  relative viability: 0.761
NCI-H650; first compound 0.08 µM
  relative viability: 0.468
NCI-H650; first compound 0.253 µM
  relative viability: 0.438
NCI-H650; first compound 0.8 µM
  relative viability: 0.489
NCI-H650; first compound 2.53 µM
  relative viability: 0.417
PC-14; first compound 0.08 µM
  relative viability: 0.586
PC-14; first compound 0.253 µM
  relative viability: 0.413
PC-14; first compound 0.8 µM
  relative viability: 0.568
PC-14; first compound 2.53 µM
  relative viability: 0.421
PC-3 [JPC-3]; first compound 0.08 µM
  relative viability: 0.478
PC-3 [JPC-3]; first compound 0.253 µM
  relative viability: 0.474
PC-3 [JPC-3]; first compound 0.8 µM
  relative viability: 0.508
PC-3 [JPC-3]; first compound 2.53 µM
  relative viability: 0.473
SK-LU-1; first compound 0.08 µM
  relative viability: 0.649
SK-LU-1; first compound 0.253 µM
  relative viability: 0.533
SK-LU-1; first compound 0.8 µM
  relative viability: 0.576
SK-LU-1; first compound 2.53 µM
  relative viability: 0.557
UMC-11; first compound 0.08 µM
  relative viability: 0.339
UMC-11; first compound 0.253 µM
  relative viability: 0.315
UMC-11; first compound 0.8 µM
  relative viability: 0.352
UMC-11; first compound 2.53 µM
  relative viability: 0.376
